In this assay the test system is HCV replicon (Huh-7 luc/neo cells, NS3-NS5B regions of HCV type 1b). Nature of the assay: HCV replicon assay (Huh-Luc cells, luciferase read-out). In kind it is cell-based. The settings on record: Hepatitis C virus, Huh-7, 72 h, three days incubation, luciferase activity, read-out: average EC50 value in the HCV replicon test. The source says: The in vitro antiviral activity against HCV of the compound of formula I or of formula II can be tested in a cellular HCV replicon system based on Lohmann et al. (1999) Science 285:110-113, with the further modifications described by Krieger et al. (2001) Journal of Virology 75: 4614-4624 (incorporated herein by reference), which is further exemplified in the examples section. This model, while not a complete infection model for HCV, is widely accepted as the most robust and efficient model of autonomous HCV RNA replication currently available. The in vitro antiviral activity against HCV can also be tested by enzymatic tests.
The compounds of formula I were examined for activity in the inhibition of HCV RNA replication in a cellular assay. […] The cellular assay was based on a bicistronic expression construct, as described by Lohmann et al. (1999) Science vol. […]
The replicon cells were plated in 384 well plates in the presence of the test and control compounds which were added in various concentrations. Following an incubation of three days, HCV replication was measured by assaying luciferase activity (using standard luciferase assay substrates and reagents, and a Perkin Elmer ViewLux™ ultraHTS microplate imager). […] The inhibitory activity of the compound was monitored on the Huh-Luc cells, enabling a dose-response curve for each test compound. […]
For orientation: A replicon is a self-replicating genome or part of one, used to study replication in cells.

Usually EC50 stands for the concentration at which the effect is half-maximal.

In the case of `COc1ccc2c(O[C@@H]3C[C@H]4C(=O)N[C@]5(C(=O)NS(=O)(=O)C6CC6)C[C@H]5C=CCCCCN(C)C(=O)[C@@H]4C3)cc(-c3nc(C(C)C)cs3)nc2c1C` (stereo in doubt) [compound I, (1R,4R,6S,15R,17R)-cis-N-[17-[2-(4-isopropylthiazole-2-yl)-7-methoxy-8-methyl-quinolin-4-yloxy]-13-methyl-2,14-dioxo-3,13-diazatricyclo[13.3.0.0^4,6]octadec-7-ene-4-carbonyl](cyclopropyl)sulfonamide], the EC50 came out at 8 nM.

Consider `C[C@@H]1[C@H](n2ccc(N)nc2=O)O[C@@](CO)(N=[N+]=[N-])[C@H]1O` [compound II, 4-amino-1-((2R,3 S,4S,5R)-5-azido-4-hydroxy-5-hydroxymethyl-3-methyltetrahydro-furan-2-yl)-1H-pyrimidin-2-one], for which the EC50 is 5000 nM.

Source of the values: US20110171174A1, “Synergistic Combinations of a Macrocyclic Inhibitor of HCV and a Nucleoside” (ORTHO-MCNEIL-JANSSEN PHARMACEUTICALS, INC., priority 2008, published 2011).
